Measurements taken from ChEMBL document CHEMBL4393738, “Design of hybrid molecules as antimycobacterial compounds: Synthesis of isoniazid-naphthoquinone derivatives and their activity against susceptible and resistant strains of Mycobacterium tuberculosis” (Bioorg Med Chem, 2019).
Values after ≈ are worked out from the molar mass of the structure shown.

What was measured:
[1] = Selectivity index, ratio of IC50 for mouse J774.A1 cells to MIC for Mycobacterium tuberculosis INH R1 ATCC 35822; assay type: toxicity; conditions: read-out: Selectivity Index
[2] = Selectivity index, ratio of IC50 for mouse J774.A1 cells to MIC for Mycobacterium tuberculosis INH R2; assay type: toxicity; conditions: read-out: Selectivity Index
J774.A1 = test: Cytotoxicity against mouse J774.A1 cells measured after 24 hrs by resazurin based assay; assay type: cell-based; conditions: J774.A1, 24 h
[3] = Selectivity index, ratio of IC50 for mouse J774.A1 cells to MIC for Mycobacterium tuberculosis H37Rv; assay type: toxicity; conditions: read-out: Selectivity Index

Structure (SMILES)	selectivity ratio [1]	selectivity ratio [2]	IC50 (J774.A1) [µg/mL]	selectivity ratio [3]
CC1(C)OC2=C(CC1I)C(=O)/C(=N\NC(=O)c1ccncc1)c1ccccc12 (stereo not given)	0.3	0.3	30.8 (≈ 63.1 µM)	0.3
CC1(C)OC2=C(CC1Br)C(=O)/C(=N\NC(=O)c1ccncc1)c1ccccc12 (stereo not given)	> 16	> 16	> 200	> 16
CC1(C)OC2=C(C(=O)/C(=N\NC(=O)c3ccncc3)c3ccccc32)C1O (stereo not given)	> 1	> 2	> 200	> 32
CC1(C)CC2=C(O1)c1ccccc1C(=O)C2=O [NOR-BETA-LAPACHONE]	0.3	0.6	3.69 (≈ 16.2 µM)	1.2
CC1(C)OC2=C(C(=O)C(=O)c3ccccc32)C1Nc1ccccc1 (stereo not given)	0.6	0.3	1.82 (≈ 5.7 µM)	0.6
CC1(C)OC2=C(C(=O)/C(=N\NC(=O)c3ccncc3)c3ccccc32)C1n1cc(-c2ccccc2)nn1 (stereo not given)	8.1	8.1	101 (≈ 207 µM)	8.1
CC1(C)OC2=C(C(=O)C(=O)c3ccccc32)C1n1cc(-c2ccccc2)nn1 (stereo not given)	0.1	0.1	2.11 (≈ 5.68 µM)	0.3
CC1(C)OC2=C(C(=O)C(=O)c3ccccc32)C1O (stereo not given)	0.1	0.1	3.67 (≈ 15 µM)	0.3
CC1(C)CCC2=C(O1)c1ccccc1/C(=N/NC(=O)c1ccncc1)C2=O	> 4	> 32	> 200	> 250
CC1(C)CCC2=C(O1)C(=O)c1ccccc1C2=O [ALPHA-LAPACHONE]	–	–	285 (≈ 1180 µM)	–
O=C1C2=C(OC(Cn3cc(-c4ccccc4)nn3)C2)c2ccccc2/C1=N/NC(=O)c1ccncc1 (stereo not given)	0.4	0.4	18.4 (≈ 38.6 µM)	1.5
CC1(C)OC2=C(C(=O)C(=O)c3ccccc32)[C@H](n2cc(-c3ccccc3)nn2)[C@H]1Br (racemic)	0.2	0.1	1.47 (≈ 3.17 µM)	0.9
CC1(C)OC2=C(CC1I)C(=O)C(=O)c1ccccc12 (stereo not given)	1	0.5	3.2 (≈ 8.69 µM)	1
CC1(C)CC2=C(O1)C(=O)c1ccccc1C2=O	0.7	0.7	18.6 (≈ 81.6 µM)	1.5
CC1CC2=C(O1)c1ccccc1/C(=N/NC(=O)c1ccncc1)C2=O (stereo not given)	> 16	> 8	> 200	> 16
CC1(C)CCC2=C(O1)c1ccccc1C(=O)C2=O [LAPACHONE]	> 64	> 32	> 200	> 32
CC1(C)CC2=C(O1)/C(=N\NC(=O)c1ccncc1)c1ccccc1C2=O	0.2	0.1	17 (≈ 48.9 µM)	0.7
CC1(C)CC2=C(O1)c1ccccc1/C(=N/NC(=O)c1ccncc1)C2=O	> 4	> 32	> 200	> 250
O=C1C(=O)c2ccccc2C2=C1CC(Cn1cc(-c3ccccc3)nn1)O2 (stereo not given)	0.1	0.1	2.94 (≈ 8.23 µM)	0.2
CC1(C)OC2=C(C(=O)/C(=N\NC(=O)c3ccncc3)c3ccccc32)C1Nc1ccccc1 (stereo not given)	0.7	3	74.2 (≈ 169 µM)	3
CC1(C)OC2=C(C(=O)/C(=N\NC(=O)c3ccncc3)c3ccccc32)[C@H](n2cc(-c3ccccc3)nn2)[C@H]1Br	0.9	< 0.9	175 (≈ 300 µM)	0.9
CC1(C)OC2=C(CC1Br)C(=O)C(=O)c1ccccc12 (stereo not given)	0.3	0.6	1.93 (≈ 6.01 µM)	0.3
